From patent US8906906B2, “Viral replication inhibitors” (Katholieke Universiteit Leuven, priority 2009, dated 2014)

What was measured:
HIV (MT4-IIIB) = assay: Anti-HIV activity: inhibition of HIV-induced cytopathogenic effect in MT-4 cells (MTT); assay type: cell-based; settings: Human immunodeficiency virus 1, IIIB
[1] = biological target: T1, His6-tagged HIV-1 integrase / flag-LEDGF/p75 interaction (Human immunodeficiency virus type 1 group M subtype B, UniProt P04585); assay: AlphaScreen assay of LEDGF-integrase interaction inhibition; assay type: binding; settings: compounds tested from 0.1 up to 100 μM
T1 construct: His6-tagged HIV-1 integrase; made in house
Protocol: Alphascreen Assay to Measure the LEDGF-Integrase Interaction Inhibitory Activity of Compounds of the Invention
The AlphaScreen assay was performed according to the manufacturer's protocol (Perkin Elmer, Benelux). Reactions were performed in 25 μl final volume in 384-well Optiwell™ microtiter plates (Perkin Elmer). The reaction buffer contained 25 mM Tris-HCl (pH 7.4), 150 mM NaCl, 1 mM MgCl2, 0.01% (v/v) Tween-20 and 0.1% (w/v) bovine serum albumin. His6-tagged integrase (300 nM final concentration) was incubated with the compounds for 30 min at 4° C. The compounds were added at varying concentrations spanning a wide range from 0.1 up to 100 μM. Afterwards 100 nM flag-LEDGF/p75 was added and incubation was prolonged for an additional hour at 4° C. Subsequently 5 μl of Ni-chelate-coated acceptor beads and 5 μl anti-flag donor beads were added to a final concentration of 20 μg/ml of both beads. Proteins and beads were incubated for 1 h at 30° C. in order to allow association to occur. Exposure of the reaction to direct light was omitted as much as possible and the emission of light from the acceptor beads was measured in the EnVision plate reader (Perkin Elmer, Benelux) and analyzed using the EnVision manager software. IN/DNA binding was analyzed in a similar setting using His6-tagged integrase (1 μM final concentration) and an oligodeoxynucleotide mimicking the IN ELISA oligonucleotide substrate (30 nM final concentration). Counterscreens with JPO2 or PogZ, respectively, were essentially performed as described previously.
Expression and purification of recombinant proteins: His6-tagged HIV-1 integrase, 3×flag-tagged LEDGF/p75, MBP-JPO2 and MBP-PogZ were purified for AlphaScreen applications as described previously 23,25,56.

[2] = Cytotoxicity in mock-infected MT-4 cells (MTT); assay type: cell-based; settings: human, read-out: CC50 in MT4-IIIB (μm)
Protocol: A rapid and automated assay procedure was used for the in vitro evaluation of anti-HIV agents. An HTLV-1 transformed T4-cell line MT-4, which was previously shown to be highly susceptible to and permissive for HIV infection, served as the target cell line. Inhibition of the HIV-induced cytopathogenic effect was used as the end point. The viability of both HIV-and mock-infected cells was assessed spectrophotometrically via in situ reduction of 3-(4,5-dimethylthiazol-2-yl)-2,5-diphenyltetrazolium bromide (MTT). The 50% cytotoxic concentration (CC50 in μg/ml) was defined as the concentration of compound that reduced the absorbance of the mock-infected control sample by 50%. The percent protection achieved by the compound in HIV-infected cells was calculated by the following formula: […]
Examples of inhibition of cell proliferation by particular compounds of formula (I) can be found by looking at the respective CC50 values in the MT-4 cell line.
Cells: MT-4 cells (Miyoshi et al., 1982) were grown and maintained in RPMI 1640 medium supplemented with 10% heat-inactivated fetal calf serum, 2 mM I-glutamine, 0.1% sodium bicarbonate, and 20 æg of gentamicin per ml.

| SMILES | EC50 (HIV (MT4-IIIB)) [µM] | IC50 [1] [µM] | CC50 [2] [µM] |
| --- | --- | --- | --- |
| CCCC(C(=O)O)c1c(C)nc(N2CCCN(CC)CC2)nc1-c1ccc(C)cc1 (stereo not drawn) [cpd 56] | 101 | 73.8 | > 250 |
| Cc1ccc(-c2nc(N3CCCCC3)nc(C)c2C(CC(C)(C)C)C(=O)O)cc1 (stereo not drawn) [cpd 152] | 3.48 | 6.9 | 72 |
| CCCC(C(=O)O)c1c(C)nc(N2CCCCC2)nc1-c1ccc(C)cc1 (stereo not drawn) [cpd 22] | 9.16 | 4.74 | 100 |
| CCCC(C(=O)O)c1c(C)nc(-c2ccc(C)cc2)nc1-c1ccc(C)cc1 (stereo not drawn) [cpd 10] | 35.9 | 30.9 | 110 |
| CCCC(C(=O)O)c1c(C)nc(N2CCCCC2)nc1-c1ccc(Cl)cc1F (stereo not drawn) [cpd 146] | 9.38 | 10.8 | 72 |
| CCCC(C(=O)O)c1c(C)nc(N2CCCCC2)nc1-c1ccc(C)cc1C (stereo not drawn) [cpd 132] | 30.2 | 22.9 | 84.5 |
| CCCC(C(=O)O)c1c(C)nc(N2CCCC(C)C2)nc1-c1ccc(C)cc1 (stereo not drawn) [cpd 40] | 24.6 | 25.1 | 120 |
| CCCC(C(=O)O)c1c(C)nc(N2CCCCC2)nc1-c1ccc(F)cc1F (stereo not drawn) [cpd 130] | 22.7 | 17.4 | 99 |
| CCCC(C(=O)O)c1c(C)nc(N2CCCC2)nc1-c1ccc(C)cc1 (stereo not drawn) [cpd 30] | 16.1 | 4.61 | 143 |
| CCCC(C(=O)O)c1c(C)nc(-c2ccccc2)nc1-c1ccc(C)cc1O (stereo not drawn) [cpd 119] | 29.4 | 21.9 | 120 |
| CCCC(C(=O)O)c1c(C)nc(-c2ccccc2)nc1-c1ccc2occc2c1 (stereo not drawn) [cpd 72] | 46.3 | 14.7 | 110 |
| CCCC(C(=O)O)c1c(C)nc(-c2ccccc2)nc1-c1ccc2c(c1)CCO2 (stereo not drawn) [cpd 70] | 42.1 | 14.9 | 90 |
| CCCC(C(=O)O)c1c(C)nc(N2CCCCC2)nc1-c1ccc(C)cc1Cl (stereo not drawn) [cpd 144] | 7.93 | 5.92 | 72.5 |
| CCCC(C(=O)O)c1c(C)nc(N2CCCCC2)nc1N1CCCCC1 (stereo not drawn) [cpd 148] | 18.1 | 34.1 | 138 |
| COCCC(C(=O)O)c1c(C)nc(N2CCCCC2)nc1-c1ccc(C)cc1 (stereo not drawn) [cpd 122] | 21.5 | 59.7 | > 250 |
| CCCC(C(=O)O)c1c(C)nc(-c2ccccc2)nc1-c1ccc(C)cc1F (stereo not drawn) [cpd 98] | 35.9 | 13.5 | 113 |
